Results as given in US9561231B2 (AbbVie Inc., priority 2012, dated 2017).
pKi: −log10 of the molar value. Like-named read-outs stand apart in the source and are kept apart here.

Tests used:
[1] = biological target: T1, second (BD2: amino acids E352-E168) bromodomain of BRD4 (Homo sapiens, UniProt O60885); experiment: TR-FRET bromodomain binding assay, BRD4 BD2; settings: Ki calculated from IC50, probe Kd and probe concentration, read-out: TR-FRET Binding Ki: BRD4 (BDII_E352-M457)
T1 construct: protocol
Protocol: (§1) A time-resolved fluorescence resonance energy transfer (TR-FRET) assay was used to determine the affinities of compounds of the Examples listed in Table 1 for each bromodomain of BRD4. His-tagged first (BD1: amino acids K57-E168) and second (BD2: amino acids E352-E168) bromodomains of BRD4 were expressed and purified. An Alexa647-labeled BET-inhibitor was used as the fluorescent probe in the assay.
(§2) Compound dilution series were prepared in DMSO via an approximately 3-fold serial dilution from one of the following:
(§3) or 5-fold serial dilution from one of the following:
(§4) Assay method A: 2.5 mM-800 nM
(§5) For Assay methods A, C, D, and F: Compounds were then diluted 6:100 in assay buffer (20 mM Sodium Phosphate, pH 6.0, 50 mM NaCl, 1 mM Ethylenediaminetetraacetic acid, 0.01% Triton X-100, 1 mM DL-Dithiothreitol) to yield 3× working solutions. […] of this solution were added to the assay plate to reach a final volume of 18 μL.
(§6) TR-FRET data were normalized to the means of 24 no-compound controls (“high”) and 8 controls containing 1 μM un-labeled probe (“low”). Percent inhibition was plotted as a function of compound concentration and the data were fit with the 4 parameter logistic equation to obtain IC50s. Inhibition constants (Ki) were calculated from the IC50s, probe Kd and probe concentration. Typical Z′ values were between 0.65 and 0.75.

[2] = biological target: T2, first (BD1: amino acids K57-E168) bromodomain of BRD4 (Homo sapiens, UniProt O60885); experiment: TR-FRET bromodomain binding assay, BRD4 BD1; settings: Ki calculated from IC50, probe Kd and probe concentration, read-out: TR-FRET Binding Ki: BRD4 (BDI_K57-E168)
T2 construct: His-tagged first (BD1: amino acids K57-E168)
Protocol: as §1, §2, §3, §4, §5, §6

[3] = TR-FRET assay protocol (D, E or G) per compound
[4] = TR-FRET assay protocol (A-G, compound concentration range)

| pKi [1, 3] | pKi [2, 3] | pKi [1, 4] | pKi [2, 4] | Compound |
| --- | --- | --- | --- | --- |
| 6.83 | 6.74 | – | – | CCOc1cc(=O)n(C)cc1-c1cc(NC(=O)c2ccc(C(C)C)cc2)ccc1Oc1ccc(F)cc1F [Example 413, N-[4-(2,4-difluorophenoxy)-3-(4-ethoxy-1-methyl-6-oxo-1,6-dihydropyridin-3-yl)phenyl]-4-(propan-2-yl)benzamide] |
| – | – | 5.50 | 5.39 | Cn1nc(-c2ccccc2Oc2ccccn2)ccc1=O [Example 6, 2-methyl-6-[2-(pyridin-2-yloxy)phenyl]pyridazin-3(2H)-one] |
| – | – | 6.46 | 6.27 | CCOc1cc(=O)n(C)cc1-c1cc(NCCC(C)(C)C)ccc1Oc1ccc(F)cc1F [Example 306, 5-{2-(2,4-difluorophenoxy)-5-[(3,3-dimethylbutyl)amino]phenyl}-4-ethoxy-1-methylpyridin-2(1H)-one] |
| – | – | 5.97 | 5.38 | Cn1nc(-c2ccccc2Oc2ccccc2)c(-c2cccc(C(=O)NC3CC3)c2)cc1=O [Example 177, N-cyclopropyl-3-[1-methyl-6-oxo-3-(2-phenoxyphenyl)-1,6-dihydropyridazin-4-yl]benzamide] |
| – | – | 5.89 | 6.12 | Cn1nc(-c2ccccc2Oc2ccccc2)c(-c2ccc(C(O)c3ccccc3)cc2)cc1=O (stereo not shown) [Example 76, 5-{4-[hydroxy(phenyl)methyl]phenyl}-2-methyl-6-(2-phenoxyphenyl)pyridazin-3(2H)-one] |
| – | – | 5.17 | 5.36 | CCOc1cccc(-c2cc(=O)n(C)nc2-c2ccccc2Oc2ccccc2)c1F [Example 136, 5-(3-ethoxy-2-fluorophenyl)-2-methyl-6-(2-phenoxyphenyl)pyridazin-3(2H)-one] |
| – | – | 5.07 | 5.05 | COc1cc(=O)n(C)nc1-c1cccc(NS(C)(=O)=O)c1 [Example 19, N-[3-(4-methoxy-1-methyl-6-oxo-1,6-dihydropyridazin-3-yl)phenyl]methanesulfonamide] |
| – | – | 5.50 | 5.13 | Cn1nc(-c2ccccc2Oc2ccccc2)c(-c2cncc(NCc3ccccc3)c2)cc1=O [Example 138, 5-[5-(benzylamino)pyridin-3-yl]-2-methyl-6-(2-phenoxyphenyl)pyridazin-3(2H)-one] |
| – | – | 6.42 | 5.79 | CNC(=O)c1cccc(-c2cc(=O)n(C)nc2-c2ccccc2Oc2ccccc2)c1 [Example 128, N-methyl-3-[1-methyl-6-oxo-3-(2-phenoxyphenyl)-1,6-dihydropyridazin-4-yl]benzamide] |
| – | – | 6.39 | 6.22 | COC(C)c1ccc(-c2cc(=O)n(C)nc2-c2ccccc2Oc2ccccc2)cc1 (stereo not shown) [Example 135, 5-[4-(1-methoxyethyl)phenyl]-2-methyl-6-(2-phenoxyphenyl)pyridazin-3(2H)-one] |
| – | – | 6.69 | 6.61 | Cn1cc(-c2cc(NS(C)(=O)=O)ccc2Oc2ccc(F)cc2F)c(Cl)cc1=O [Example 269, N-[3-(4-chloro-1-methyl-6-oxo-1,6-dihydropyridin-3-yl)-4-(2,4-difluorophenoxy)phenyl]methanesulfonamide] |
| – | – | 7.03 | 6.56 | CCOc1cc(=O)n(C)cc1-c1cc(NC(=O)C2CCN(c3ccccc3)C2=O)ccc1Oc1ccc(F)cc1F (stereo not shown) [Example 295, N-[4-(2,4-difluorophenoxy)-3-(4-ethoxy-1-methyl-6-oxo-1,6-dihydropyridin-3-yl)phenyl]-2-oxo-1-phenylpyrrolidine-3-carboxamide] |
| – | – | 6.67 | 6.60 | COCCCNC(=O)c1ccc(-c2cc(=O)n(C)nc2-c2ccccc2Oc2ccccc2)cc1 [Example 171, N-(3-methoxypropyl)-4-[1-methyl-6-oxo-3-(2-phenoxyphenyl)-1,6-dihydropyridazin-4-yl]benzamide] |
| – | – | 5.16 | 4.95 | Cc1n[nH]c(C)c1-c1cc(=O)n(C)nc1-c1ccccc1Oc1ccccc1 [Example 115, 5-(3,5-dimethyl-1H-pyrazol-4-yl)-2-methyl-6-(2-phenoxyphenyl)pyridazin-3(2H)-one] |
